For one molecule, IC50 results are on record in patent publication US9273043B2, “TRPV1 antagonists including dihydroxy substituent and uses thereof” (Purdue Pharma L.P., priority 2011, dated 2016).

Common to all, as to assay type: cell-based
Assay [1] has as its target T1, human TRPV1 (Homo sapiens (Human), UniProt Q8NER1). Briefly: Capsaicin-based assay, Protocol 2, TRPV1/CHO cells (hCAP-CHO), Fluo-4 FLIPR. Conditions: 100 nM capsaicin, mean ± SEM. The gist of the method: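 CHO cells stably transfected with human TRPV1 cDNA (G418-selected) were loaded with 3 μM Fluo-4 for 1 h, washed, then read on FLIPR with 15 s baseline before additions. Compound tested at final 100 μM to 1.5625 μM against capsaicin stimulation; calcium fluorescence time course curve-fitted.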

Assay [2] deals with T1, human TRPV1. Briefly: pH-based assay, Protocol 2, TRPV1/CHO cells (hpH-CHO), Fura-2 Ca2+ influx. Conditions: pH 5.0-5.1 (H2SO4), mean ± SEM.
Assay [3] concerns the target T1, human TRPV1. In words: Human TRPV1 heat-based assay, hTRPV1/CHO cells (hHeat-CHO). The settings on record: temperature ramp 25 to 45 °C, mean ± SEM. The method, then: Human TRPV1 Heat-based Assay:
CHO cells stably expressing human TRPV1 (hTRPV1) were used. Functional assessment of heat-induced activation of hTRPV1 was carried out in a cell-based Ca^2+ flux assay using ABI7500 Fast Real-Time PCR System as described in Reubish et al., “Functional assessment of temperature-gated ion-channel activity using a real-time PCR machine,” www.BioTechniques.com 47(3):iii-ix (2009), which is hereby incorporated by reference. Briefly, hTRPV1/CHO cells were cultured in growth media in a tissue culture dish at 37° C. in a CO2 incubator. On the day of the assay, culture media were removed and the cells were then detached using 0.05% trypsin at 37° C. with 5% CO2, for 90 s. The detached cells were centrifuged (1000 rpm, 4 min) to remove trypsin-containing supernatant and resuspended in assay buffer (115 mM NaCl, 5.4 mM KCl, 0.8 mM MgCl2.6H2O, 1.8 mM CaCl2.2H2O, 13.8 mM D-glucose, and 20 mM HEPES). Then, the cells were loaded with 5 μM Fluo-4, a Ca^2+ reporter dye, in the presence of 2.5 mM probenecid at 37° C. with 5% CO2, for 45 min. Thereafter, the cells were washed twice with measuring buffer (assay buffer supplemented with 0.1% BSA and 3.2 mM CaCl2) then transferred to a Fast 96-well Reaction Plate (0.1 mL) (Part no. 4346907, MICROAMP, Applied Biosystems, Foster City, Calif.). The cell density was 100,000 cells/24 μL/well. A solution of the compound under test (6 μL/well) was added into each well of the 96-well plate. Thus, the reaction volume per well was 30 μL.
The plates were then placed inside an ABI7500 Fast Real-Time PCR instrument (Applied Biosystems) to read fluorescence at different temperatures using 7500 software, version 2.0.2 (Applied Biosystems). The initial temperature was set at 25° C. for 1 min. followed by a temperature ramp to 45° C. in 100 s to deliver heat to cells. [Ca^2+], response of hTRPV1/CHO cells to heat was determined as: [fluorescence read at 45° C.−fluorescence read at 25° C.].
Compound concentration response curves and IC50 values were analyzed using GraphPad Prism 4 software (GraphPad Software, La Jolla, Calif.).
The IC50 data provided in Table 6 are shown as mean±standard error of the mean; the number of trials conducted for each assay is shown in parentheses except for only a single trial where no number of trials is shown in parentheses.

Each structure is given as a SMILES string.

T1 sequence (Q8NER1 whole entry, looked up): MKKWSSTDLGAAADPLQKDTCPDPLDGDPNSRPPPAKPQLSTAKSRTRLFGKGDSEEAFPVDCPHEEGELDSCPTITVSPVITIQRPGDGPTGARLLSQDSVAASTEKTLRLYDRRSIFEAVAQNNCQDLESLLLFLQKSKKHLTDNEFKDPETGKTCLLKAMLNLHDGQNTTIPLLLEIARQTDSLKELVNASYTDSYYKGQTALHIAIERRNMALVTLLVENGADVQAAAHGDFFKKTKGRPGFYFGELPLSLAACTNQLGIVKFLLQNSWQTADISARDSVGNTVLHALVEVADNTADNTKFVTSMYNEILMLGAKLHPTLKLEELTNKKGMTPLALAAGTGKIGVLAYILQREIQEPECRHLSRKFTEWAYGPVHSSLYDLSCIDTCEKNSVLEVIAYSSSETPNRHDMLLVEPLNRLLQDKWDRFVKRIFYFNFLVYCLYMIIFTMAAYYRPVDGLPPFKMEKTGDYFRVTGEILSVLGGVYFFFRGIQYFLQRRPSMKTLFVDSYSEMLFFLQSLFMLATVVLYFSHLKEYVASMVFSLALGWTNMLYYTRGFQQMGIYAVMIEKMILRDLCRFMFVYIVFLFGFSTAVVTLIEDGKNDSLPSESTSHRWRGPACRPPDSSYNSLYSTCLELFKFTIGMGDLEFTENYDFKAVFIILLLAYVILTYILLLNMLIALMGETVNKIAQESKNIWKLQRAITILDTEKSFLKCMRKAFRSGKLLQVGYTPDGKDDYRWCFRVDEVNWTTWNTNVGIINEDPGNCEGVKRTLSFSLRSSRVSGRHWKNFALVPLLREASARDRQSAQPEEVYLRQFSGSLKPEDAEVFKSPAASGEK

The IC50 is the midpoint of a concentration-inhibition curve. `C[C@H](O)[C@@H](O)c1cnc(N2CCN(C(=O)Nc3nc4ccc(Cl)cc4s3)CC2)c(F)c1` [C123(r), N-(6-chlorobenzo[d]thiazol-2-yl)-4-(5-((1S,2S)-1,2-dihydroxypropyl)-3-fluoropyridin-2-yl)piperazine-1-carboxamide]: the half-maximal inhibitory concentration (IC50) was 26.9 ± 3.6 nM on human TRPV1 [1], 20.6 ± 2.6 nM against human TRPV1 [2] and 96 ± 14 nM on human TRPV1 [3].
